Measurements reported in PubChem BioAssay AID1259408 (Genetic Toxicology Data Bank (GENE-TOX), 2018).
The source made the active and inactive calls. No rule for the calls is given here.

Tested on: GENE-TOX genotoxicity assays, various organisms and cells
Test: GENE-TOX mutagenicity studies
Conditions: for call: Assay Type: In vivo carcinogenicity studies
[1] = Species/Cell Type: Saccharomyces cerevisiae, Assay Type: Mitotic recombination or gene conversion, Assay Code: YEH-, Evaluation Type: Evaluation A (Pre-1980)
[2] = Species/Cell Type: Mouse, Sex: Male, Assay Type: Sperm morphology, Assay Code: SPI-, Evaluation Type: Evaluation A (Pre-1980)
[3] = Species/Cell Type: Chinese hamster lung (V79) cells, Assay Type: Forward gene mutation at the HPRT or ouabain locus, Assay Code: V79+, Evaluation Type: Evaluation A (Pre-1980)
[4] = Species/Cell Type: Drosophila melanogaster, Assay Type: Sex-linked recessive lethal gene mutation, Assay Code: SRLT, Evaluation Type: Evaluation A (Pre-1980)
[5] = Species/Cell Type: Nonhuman, Assay Type: Sister-chromatid exchange (SCE) in vitro, Assay Code: SC2+, Evaluation Type: Evaluation A (Pre-1980)
[6] = Species/Cell Type: Salmonella typhimurium (one or more of the five standard strains: TA98, TA100, TA1535, TA1537, and TA1538), Assay Type: Histidine reverse gene mutation, Ames assay, Assay Code: SALT, Evaluation Type: Evaluation A (Pre-1980)
[7] = Species/Cell Type: Nonhuman, Assay Code: CCG+, Evaluation Type: Evaluation A (Pre-1980)
[8] = Species/Cell Type: Salmonella typhimurium (one or more of the five standard strains: TA98, TA100, TA1535, TA1537, and TA1538), Assay Type: Histidine reverse gene mutation, Ames assay, Assay Code: SAL+*, Activation: With metabolic activation, Evaluation Type: Evaluation A (Pre-1980)
[9] = Species/Cell Type: Syrian hamster embryo (SA7/SHE) cells, Assay Type: Cell transformation, viral enhanced, Assay Code: CT7-, Evaluation Type: Evaluation A (Pre-1980)

Q: Which results are given for CCCOP(=S)(OCCC)OP(=S)(OCCC)OCCC?
A: mutagenic call (Species/Cell Type: Bacillus subtilis (H17 vs M45), Assay Type: Rec-assay, spot test, DNA effects (bacterial DNA repair), Assay Code: REWT, Evaluation Type: Evaluation A (Pre-1980)): no conclusion; mutagenic call (Species/Cell Type: Drosophila melanogaster, Assay Type: Sex-linked recessive lethal gene mutation, Assay Code: SRL-, Evaluation Type: Evaluation A (Pre-1980)): inactive; negative; mutagenic call (Species/Cell Type: Escherichia coli WP2 UVRA, Assay Type: Tryptophan reverse gene mutation, Assay Code: WPU-*, Activation: With metabolic activation, Evaluation Type: Evaluation A (Pre-1980)): inactive; negative; mutagenic call (Species/Cell Type: Escherichia coli polA (W3119 vs P3478), Assay Type: Rec-assay, DNA effects (bacterial DNA repair), Assay Code: RE1T, Evaluation Type: Evaluation A (Pre-1980)): no conclusion; mutagenic call (Species/Cell Type: Human diploid fibroblasts, Assay Type: Unscheduled DNA synthesis (UDS) in vitro, DNA effects, Assay Code: UDH-, Evaluation Type: Evaluation A (Pre-1980)): inactive; negative; mutagenic call [1]: inactive; negative; mutagenic call (Species/Cell Type: Salmonella typhimurium (one or more of the five standard strains: TA98, TA100, TA1535, TA1537, and TA1538), Assay Type: Histidine reverse gene mutation, Ames assay, Assay Code: SAL-, Evaluation Type: Evaluation A (Pre-1980)): inactive; negative

Q: N#Cc1ccc(N)cc1 was tested. Which mutagenic call [2] did it give?
A: inactive; negative

Q: With Cc1ccc2cc3c(c4c2c1CC4)[C@@H](O)[C@@H](O)c1ccccc1-3 as the compound, how does the mutagenic call [3] read?
A: active; positive

Q: What about the mutagenic call (Species/Cell Type: Mouse prostate cells, Assay Type: Cell transformation, Assay Code: CTMT, Evaluation Type: Evaluation A (Pre-1980)) of the same compound?
A: no conclusion

Q: O=c1cc[nH]c(=O)[nH]1 was tested. Which mutagenic call [4] did it give?
A: no conclusion

Q: Which mutagenic call (Species/Cell Type: Human lymphocytes, Assay Type: Sister-chromatid exchange (SCE) in vitro, Assay Code: SCL+, Evaluation Type: Evaluation A (Pre-1980)) does the source give for O=C1O[C@H]([C@@H](O)CO)C(O)=C1O here?
A: active; positive

Q: And the mutagenic call (Species/Cell Type: Human lymphocytes, Assay Type: Sister-chromatid exchange (SCE) in vitro, Assay Code: SCLT, Evaluation Type: Evaluation B (Post-1980))?
A: no conclusion

Q: And the mutagenic call (Species/Cell Type: Human, Assay Type: Sister-chromatid exchange (SCE) in vitro, Assay Code: SC1+, Evaluation Type: Evaluation A (Pre-1980))?
A: active; positive

Q: What about the mutagenic call (Species/Cell Type: Human, Assay Type: Sister-chromatid exchange (SCE) in vitro, Assay Code: SC1T, Evaluation Type: Evaluation B (Post-1980)) of the same compound?
A: no conclusion

Q: What about the mutagenic call (Species/Cell Type: Mammalian polychromatic erythrocytes, Assay Type: Micronucleus test, chromosome aberrations, Assay Code: MNTT, Evaluation Type: Evaluation A (Pre-1980)) of the same compound?
A: no conclusion

Q: What about the mutagenic call [2] of the same compound?
A: inactive; negative

Q: And the mutagenic call [5]?
A: active; positive

Q: And the mutagenic call (Species/Cell Type: Nonhuman, Assay Type: Sister-chromatid exchange (SCE) in vitro, Assay Code: SC2+D, Dose Response: With dose response, Evaluation Type: Evaluation B (Post-1980))?
A: active; positive

Q: What about the mutagenic call (Species/Cell Type: Nonhuman, Assay Type: Sister-chromatid exchange (SCE) in vivo, Assay Code: SC3T, Evaluation Type: Evaluation B (Post-1980)) of the same compound?
A: no conclusion

Q: And the mutagenic call [6]?
A: no conclusion

Q: Which call [7] does the source give for CN(CC(=O)O)N=O here?
A: active; positive

Q: And the mutagenic call (Species/Cell Type: Salmonella typhimurium, Assay Type: Forward and reverse gene mutation, host-mediated assay, Assay Code: HMA-, Evaluation Type: Evaluation A (Pre-1980))?
A: inactive; negative

Q: Which results are given for CC(C)Oc1ccccc1OC(=O)N(C)N=O?
A: mutagenic call (Species/Cell Type: Bacillus subtilis (H17 vs M45T), Assay Type: Rec-assay, spot test, DNA effects (bacterial DNA repair), Assay Code: REX+, Evaluation Type: Evaluation A (Pre-1980)): active; positive; mutagenic call (Species/Cell Type: Escherichia coli WP2, Assay Type: Tryptophan reverse gene mutation, Assay Code: WP2+, Evaluation Type: Evaluation A (Pre-1980)): active; positive; mutagenic call (Species/Cell Type: Saccharomyces cerevisiae, Assay Type: Mitotic recombination or gene conversion, Assay Code: YEC+, Evaluation Type: Evaluation A (Pre-1980)): active; positive; mutagenic call (Species/Cell Type: Salmonella typhimurium (one or more of the five standard strains: TA98, TA100, TA1535, TA1537, and TA1538), Assay Type: Histidine reverse gene mutation, Ames assay, Assay Code: SAL+, Evaluation Type: Evaluation A (Pre-1980)): active; positive

Q: For COc1cc2c(c(O)c1OC)C13CCC(OC)CC1N(CC3)C2 (centres undefined), which mutagenic call (Species/Cell Type: Mammalian polychromatic erythrocytes, Assay Type: Micronucleus test, chromosome aberrations, Assay Code: MNT+, Evaluation Type: Evaluation B (Post-1980)) is on record?
A: active; positive

Q: Which mutagenic call (Species/Cell Type: Chinese hamster lung (V79) cells, Assay Type: Forward gene mutation at the HPRT or ouabain locus, Assay Code: V79-, Evaluation Type: Evaluation A (Pre-1980)) does the source give for CC(=O)Nc1ccc2c(c1)Cc1ccccc1-2 here?
A: inactive; negative

Q: What about the mutagenic call (Species/Cell Type: Chinese hamster ovary (CHO) cells, Assay Type: Forward gene mutation at the HPRT locus, Assay Code: CHO+*, Activation: With metabolic activation, Evaluation Type: Evaluation B (Post-1980)) of the same compound?
A: active; positive

Q: What about the mutagenic call [4] of the same compound?
A: no conclusion

Q: And the mutagenic call (Species/Cell Type: Escherichia coli polA (W3110 vs P3478), Assay Type: Rec-assay, DNA effects (bacterial DNA repair), Assay Code: RE2+, Evaluation Type: Evaluation A (Pre-1980))?
A: active; positive

Q: What about the mutagenic call (Species/Cell Type: Escherichia coli polA (W3119 vs P3478), Assay Type: Rec-assay, DNA effects (bacterial DNA repair), Assay Code: RE1-, Evaluation Type: Evaluation A (Pre-1980)) of the same compound?
A: inactive; negative

Q: What about the mutagenic call (Species/Cell Type: Fischer rat embryo (RLV/1706) cells, Assay Type: Cell transformation, viral enhanced, Assay Code: CTRT, Evaluation Type: Evaluation A (Pre-1980)) of the same compound?
A: no conclusion

Q: What about the mutagenic call (Species/Cell Type: Human diploid fibroblasts, Assay Type: Unscheduled DNA synthesis (UDS) in vitro, DNA effects, Assay Code: UDHT, Evaluation Type: Evaluation A (Pre-1980)) of the same compound?
A: no conclusion

Q: And the mutagenic call (Species/Cell Type: Human lymphocytes, Assay Type: Sister-chromatid exchange (SCE) in vitro, Assay Code: SCL-, Evaluation Type: Evaluation A (Pre-1980))?
A: inactive; negative

Q: What about the mutagenic call (Species/Cell Type: Human, Assay Type: Sister-chromatid exchange (SCE) in vitro, Assay Code: SC1+D, Dose Response: With dose response, Evaluation Type: Evaluation B (Post-1980)) of the same compound?
A: active; positive

Q: What about the mutagenic call (Species/Cell Type: Human, Assay Type: Sister-chromatid exchange (SCE) in vitro, Assay Code: SC1-, Evaluation Type: Evaluation A (Pre-1980)) of the same compound?
A: inactive; negative

Q: And the mutagenic call (Species/Cell Type: Mammalian polychromatic erythrocytes, Assay Type: Micronucleus test, chromosome aberrations, Assay Code: MNT+, Evaluation Type: Evaluation A (Pre-1980))?
A: active; positive

Q: What about the mutagenic call (Species/Cell Type: Mouse (BALB/c-3T3) cells, Assay Type: Cell transformation, Assay Code: CTB+D, Dose Response: With dose response, Evaluation Type: Evaluation A (Pre-1980)) of the same compound?
A: active; positive

Q: What about the mutagenic call (Species/Cell Type: Mouse lymphoma (L5178Y) cells, Assay Type: Forward gene mutation at the thymidine kinase (TK) locus, chromosome aberrations, Assay Code: L51+*, Activation: With metabolic activation, Evaluation Type: Evaluation A (Pre-1980)) of the same compound?
A: active; positive

Q: And the mutagenic call [2]?
A: inactive; negative

Q: What about the call [7] of the same compound?
A: active; positive

Q: What about the mutagenic call [5] of the same compound?
A: active; positive

Q: And the mutagenic call (Species/Cell Type: Nonhuman, Assay Type: Sister-chromatid exchange (SCE) in vivo, Assay Code: SC3+D, Dose Response: With dose response, Evaluation Type: Evaluation B (Post-1980))?
A: active; positive

Q: What about the mutagenic call (Species/Cell Type: Nonhuman, Assay Type: Sister-chromatid exchange (SCE) in vivo, Assay Code: SC3T, Evaluation Type: Evaluation A (Pre-1980)) of the same compound?
A: no conclusion

Q: What about the mutagenic call (Species/Cell Type: Rat primary hepatocytes, Assay Type: Unscheduled DNA synthesis (UDS) in vitro, DNA effects, Assay Code: UDP+, Evaluation Type: Evaluation A (Pre-1980)) of the same compound?
A: active; positive

Q: And the mutagenic call (Species/Cell Type: Saccharomyces cerevisiae, Assay Type: Mitotic recombination or gene conversion, Assay Code: YEC-*, Activation: With metabolic activation, Evaluation Type: Evaluation A (Pre-1980))?
A: inactive; negative

Q: And the mutagenic call (Species/Cell Type: Saccharomyces cerevisiae, Assay Type: Mitotic recombination or gene conversion, Assay Code: YEH-*, Activation: With metabolic activation, Evaluation Type: Evaluation A (Pre-1980))?
A: inactive; negative

Q: What about the mutagenic call [8] of the same compound?
A: active; positive

Q: What about the mutagenic call (Species/Cell Type: Salmonella typhimurium, Assay Type: Forward and reverse gene mutation, body fluid assay, Assay Code: BFU+, Evaluation Type: Evaluation A (Pre-1980)) of the same compound?
A: active; positive

Q: And the mutagenic call (Species/Cell Type: Salmonella typhimurium, Assay Type: Forward and reverse gene mutation, host-mediated assay, Assay Code: HMA+, Evaluation Type: Evaluation A (Pre-1980))?
A: active; positive

Q: What about the mutagenic call [9] of the same compound?
A: inactive; negative

Q: What about the mutagenic call (Species/Cell Type: Syrian hamster embryo (SHE) cells, Assay Type: Cell transformation, clonal assay, Assay Code: CTC+D*, Activation: With metabolic activation, Dose Response: With dose response, Evaluation Type: Evaluation A (Pre-1980)) of the same compound?
A: active; positive

Q: O=C(/C=C/c1ccc([N+](=O)[O-])o1)NC1CCCCC1 was tested. Which mutagenic call (Species/Cell Type: Neurospora crassa, Assay Type: Forward gene mutation, Assay Code: NEF-, Evaluation Type: Evaluation A (Pre-1980)) did it give?
A: inactive; negative

Q: Cc1ccc2cc3c(ccc4ccccc43)c3c2c1C(=O)C3 was tested. Which mutagenic call [3] did it give?
A: active; positive

Q: And the call (Species/Cell Type: Nonhuman, Assay Code: CCG+L, Evaluation Type: Evaluation A (Pre-1980))?
A: active; positive

Q: What about the mutagenic call [8] of the same compound?
A: active; positive

Q: What does the source list for COC(=O)C[C@@H]1Cc2cc3c(-c4c(OC)cc(O)c5c(O)c6c(cc45)C[C@@H](CC(=O)OC)OC6=O)c(OC)cc(O)c3c(O)c2C(=O)O1?
A: mutagenic call [1]: inactive; negative; mutagenic call [6]: no conclusion

Q: Which results are given for O=[N+]([O-])O?
A: mutagenic call (Species/Cell Type: Bacillus subtilis (H17 vs M45), Assay Type: Rec-assay, spot test, DNA effects (bacterial DNA repair), Assay Code: REW+, Evaluation Type: Evaluation A (Pre-1980)): active; positive; mutagenic call (Species/Cell Type: Mammalian polychromatic erythrocytes, Assay Type: Micronucleus test, chromosome aberrations, Assay Code: MNT+U, Dose Response: Unconfirmed positive response, Evaluation Type: Evaluation B (Post-1980)): active; positive; mutagenic call [9]: inactive; negative; mutagenic call (Species/Cell Type: Syrian hamster embryo (SHE) cells, Assay Type: Cell transformation, clonal assay, Assay Code: CTCT, Evaluation Type: Evaluation A (Pre-1980)): no conclusion
